Experiment [1] in a line: Inhibition of p-gp in multidrug-resistant human KB cells assessed as increase in vincristine-mediated cytotoxicity. Format: cell-based.
In experiment [2] the test system is KB. The experiment is described as follows: Cytotoxicity against human KB cells. It is filed as functional, cell-based.

This is an account of results in ChEMBL document CHEMBL2375234, “Rhazinilam-Leuconolam-Leuconoxine Alkaloids from Leuconotis griffithii” (J Nat Prod, 2013).

In brackets after ≈: the same amount, converted by molar mass.

Take `CC[C@@]12CCCN3CC[C@@]4(O)c5ccccc5N(C(=O)CC1)C324` (some centres undefined): the IC50 (as a rule, the midpoint of a concentration-inhibition curve) in experiment [1] came out at 9.34 µg/mL (≈ 29.9 µM).
Turning to `CC[C@@]12CCCN3CC[C@H]4c5ccccc5N(C(=O)CC1)C432` (some centres undefined), it took 12 µg/mL (≈ 40.5 µM) to reach half-maximal inhibition in experiment [2] (IC50).
Consider `CC[C@@]12CCCN3C(=O)C[C@@]4(O)c5ccccc5N(C(=O)CC1)C324` (some centres undefined), for which the IC50 in experiment [2] stood at 12 µg/mL (≈ 36.8 µM).
On to `CC[C@@]12CCC(=O)Nc3ccccc3-c3ccn(c31)C(=O)C2` [NOR-RHAZINICINE], for which, in experiment [2], the IC50 stood at 12 µg/mL (≈ 40.8 µM).
